Data published in ChEMBL document CHEMBL5154678, “Lysine Stapling Screening Provides Stable and Low Toxic Cationic Antimicrobial Peptides Combating Multidrug-Resistant Bacteria In Vitro and In Vivo” (J Med Chem, 2022).
Values after ≈ are worked out from the molar mass of the structure shown. Starred links: 1 amine or outer side, 2 acyl side, 3 side chain; linkers in the order of their positions; H or OH if unused. Positions of bridges follow the written chain, without caps; N, C: chain ends. Non-standard residues stand in square brackets, D forms with d. Residues, ends and D or L forms follow the SMILES beside them. X1 = O=C([C@H](CCCCNCC=[*:3])N[*:1])[*:2]

Columns and labels:
Staphylococcus aureus [1] = test: Antibacterial activity against methicillin-resistant Staphylococcus aureus assessed as inhibition of bacterial growth incubated for 16 hrs by broth microdilution method; type: functional
Staphylococcus aureus [2] = test: Antibacterial activity against Staphylococcus aureus BNCC 186335 assessed as inhibition of bacterial growth incubated for 16 hrs by broth microdilution method; type: functional
Listeria monocytogenes = test: Antibacterial activity against Listeria monocytogenes assessed as inhibition of bacterial growth incubated for 16 hrs by broth microdilution method; type: functional
Pseudomonas aeruginosa = test: Antibacterial activity against Pseudomonas aeruginosa BNCC 125486 assessed as inhibition of bacterial growth incubated for 16 hrs by broth microdilution method; type: functional
Escherichia coli [3] = test: Antibacterial activity against Escherichia coli BNCC 133264 assessed as inhibition of bacterial growth incubated for 16 hrs by broth microdilution method; type: functional
Escherichia coli [4] = test: Antibacterial activity against cephalosporin-resistant Escherichia coli BNCC 133264 assessed as inhibition of bacterial growth incubated for 16 hrs by broth microdilution method; type: functional
Erythrocyte = test: Hemolytic activity against human RBC assessed as concentration required to cause 10% hemolysis; type: toxicity, cell-based
HEK-293T = test: Cytotoxicity against human HEK293T cells assessed as cell survival rate at 8 to 128 Ug/ml incubated for 24 hrs by MTT assay relative to control; type: toxicity, cell-based; details: dose 8-128 µg/ml

Compound | MIC (Staphylococcus aureus [1]) [µg/mL] | MIC (Staphylococcus aureus [2]) [µg/mL] | MIC (Listeria monocytogenes) [µg/mL] | MIC (Pseudomonas aeruginosa) [µg/mL] | MIC (Escherichia coli [3]) [µg/mL] | MIC (Escherichia coli [4]) [µg/mL] | MHC (Erythrocyte) [µg/mL] | Activity (HEK-293T)
CC[C@H](C)[C@@H]1NC(=O)[C@@H](NC(=O)[C@H](CC(N)=O)NC(=O)[C@H](CC(C)C)NC(=O)[C@@H](NC(=O)[C@H](CCCCN)NC(=O)[C@@H]2CCCN2)[C@@H](C)CC)CCCCNC/C=C/CNCCCC[C@@H](C(=O)N[C@H](C(=O)N[C@@H](CC(C)C)C(=O)N[C@@H](CCCNC(=N)N)C(=O)N[C@@H](CC(C)C)C(=O)N[C@@H](C)C(=O)N[C@@H](C)C(=O)N[C@@H](C)C(=O)N[C@@H](Cc2ccccc2)C(=O)N[C@@H](CCCCN)C(N)=O)[C@@H](C)CC)NC(=O)CNC(=O)[C@H](CC(C)C)NC1=O (H-PKILN[X1]ILG[X1]ILRLAAAFK-NH2; staple (E) 6-10) | 4 (≈ 1.85 µM) | 2 (≈ 0.926 µM) | 2 (≈ 0.926 µM) | 16 (≈ 7.41 µM) | 4 (≈ 1.85 µM) | 8 (≈ 3.71 µM) | 16 | Non-Toxic
CCN1CCN(C(=O)N[C@@H](C(=O)N[C@@H]2C(=O)N3C(C(=O)[O-])=C(CSc4nnnn4C)CS[C@H]23)c2ccc(O)cc2)C(=O)C1=O.[Na+] [CEFOPERAZONE SODIUM] | > 128 | 0.5 | 8 | 4 | 0.125 | > 128 | – | –
CC(C)C[C@H](NC(=O)[C@H](C)NC(=O)[C@@H]1CCCCNC/C=C/CNCCCC[C@H](NC(=O)[C@H](CC(C)C)NC(=O)[C@H](CC(C)C)NC(=O)[C@H](CC(=O)O)NC(=O)[C@H](CCCCN)NC(=O)[C@H](Cc2ccccc2)NC(=O)CN)C(=O)NCC(=O)N[C@@H](C)C(=O)N[C@@H](C)C(=O)N1)C(=O)N[C@H](C(=O)N[C@@H](CCCCN)C(=O)N[C@H](C(=O)N[C@H](C(=O)N[C@@H](CC(C)C)C(=O)N[C@@H](Cc1ccccc1)C(N)=O)C(C)C)[C@@H](C)O)C(C)C (H-GFKDLL[X1]GAA[X1]ALVKTVLF-NH2; staple (E) 7-11) | 8 (≈ 3.86 µM) | 2 (≈ 0.966 µM) | 8 (≈ 3.86 µM) | 32 (≈ 15.5 µM) | 16 (≈ 7.73 µM) | 32 (≈ 15.5 µM) | 32 | –
CN[C@H](CC(C)C)C(=O)N[C@H]1C(=O)N[C@@H](CC(N)=O)C(=O)N[C@H]2C(=O)N[C@H]3C(=O)N[C@H](C(=O)N[C@H](C(=O)O)c4cc(O)cc(O)c4-c4cc3ccc4O)[C@H](O)c3ccc(c(Cl)c3)Oc3cc2cc(c3O[C@@H]2O[C@H](CO)[C@@H](O)[C@H](O)[C@H]2O[C@H]2C[C@](C)(N)[C@H](O)[C@H](C)O2)Oc2ccc(cc2Cl)[C@H]1O [VANCOMYCIN] | – | – | – | > 128 | > 128 | > 128 | – | –
CC[C@H](C)[C@H](NC(=O)[C@@H]1CCCCNC/C=C/CNCCCC[C@H](NC(=O)[C@H](CC(C)C)NC(=O)[C@@H](NC(=O)[C@H](CO)NC(=O)CNC(=O)[C@H](Cc2ccccc2)NC(=O)[C@@H](N)Cc2ccccc2)C(C)C)C(=O)N[C@@H](CC(C)C)C(=O)N[C@@H]([C@@H](C)CC)C(=O)N2CCC[C@H]2C(=O)N1)C(=O)N[C@@H](CC(C)C)C(N)=O (H-FFGSVL[X1]LIP[X1]IL-NH2; staple (E) 7-11) | 4 (≈ 2.62 µM) | 4 (≈ 2.62 µM) | 4 (≈ 2.62 µM) | > 128 | 64 (≈ 41.9 µM) | 128 (≈ 83.9 µM) | 32 | Toxic
CC(C)C[C@H](NC(=O)[C@H](C)NC(=O)[C@H](CCCCN)NC(=O)[C@H](C)NC(=O)[C@H](C)NC(=O)CNC(=O)[C@H](CCCCN)NC(=O)[C@H](CC(C)C)NC(=O)[C@H](CC(C)C)NC(=O)[C@H](CC(=O)O)NC(=O)[C@H](CCCCN)NC(=O)[C@H](Cc1ccccc1)NC(=O)CN)C(=O)N[C@H](C(=O)N[C@@H](CCCCN)C(=O)N[C@H](C(=O)N[C@H](C(=O)N[C@@H](CC(C)C)C(=O)N[C@@H](Cc1ccccc1)C(N)=O)C(C)C)[C@@H](C)O)C(C)C [Ascaphin-8] (H-GFKDLLKGAAKALVKTVLF-NH2) | 16 (≈ 7.93 µM) | 2 (≈ 0.991 µM) | 2 (≈ 0.991 µM) | 16 (≈ 7.93 µM) | 4 (≈ 1.98 µM) | 32 (≈ 15.9 µM) | 32 | Toxic
CC(C)C[C@H](NC(=O)[C@H](C)NC(=O)[C@H](CCCCN)NC(=O)[C@H](C)NC(=O)[C@H](C)NC(=O)CNC(=O)[C@@H]1CCCCNC/C=C/CNCCCC[C@H](NC(=O)[C@H](Cc2ccccc2)NC(=O)CN)C(=O)N[C@@H](CC(=O)O)C(=O)N[C@@H](CC(C)C)C(=O)N[C@@H](CC(C)C)C(=O)N1)C(=O)N[C@H](C(=O)N[C@@H](CCCCN)C(=O)N[C@H](C(=O)N[C@H](C(=O)N[C@@H](CC(C)C)C(=O)N[C@@H](Cc1ccccc1)C(N)=O)C(C)C)[C@@H](C)O)C(C)C (H-GF[X1]DLL[X1]GAAKALVKTVLF-NH2; staple (E) 3-7) | 16 (≈ 7.73 µM) | 4 (≈ 1.93 µM) | 16 (≈ 7.73 µM) | 128 (≈ 61.8 µM) | 16 (≈ 7.73 µM) | 32 (≈ 15.5 µM) | 32 | Toxic
